In patent publication US9115143B2, “Substituted indole derivatives as gamma secretase modulators” (Janssen Pharmaceuticals, Inc., priority 2011, dated 2015) one finds IC50 data, which are given here for 20 compounds.

The subject of test [1] is Aβ42. The test is described as follows: Screening for γ-secretase-modulating activity: Aβ42 in supernatant of SKNBE2 cells carrying hAPP 695 wild type (Alphalisa). The format is cell-based, human. Particulars: overnight incubation, Alphalisa on supernatant. How it is done: (§1) Pharmacology A) Screening of the Compounds of the Invention for γ-Secretase-Modulating Activity
(§2) Screening was carried out using SKNBE2 human neuroblastoma cells carrying the hAPP 695—wild type, grown in Dulbecco's Modified Eagle's Medium/Nutrient mixture F-12 (DMEM/NUT-mix F-12) (HAM) provided by Invitrogen (cat no. 10371-029) containing 5% Serum/Fe supplemented with 1% non-essential amino acids, 1-glutamine 2 mM, Hepes 15 mM, penicillin 50 U/mL (units/mL) en streptomycin 50 μg/mL. Cells were grown to near confluency.
(§3) The screening was performed using a modification of the assay as described in Citron et al (1997) Nature Medicine 3: 67. Briefly, cells were plated in a 384-well plate at 10^4 cells/well in Ultraculture (Lonza, BE12-725F) supplemented with 1% glutamine (Invitrogen, 25030-024), 1% non-essential amino acid (NEAA), penicillin 50 U/mL en streptomycin 50 μg/mL in the presence of test compound at different test concentrations. The cell/compound mixture was incubated overnight at 37° C., 5% CO2. The next day the media were assayed by two sandwich immuno-assays, for Aβ42 and Aβtotal.
(§4) Aβtotal and Aβ42 concentrations were quantified in the cell supernatant using the Aphalisa technology (Perkin Elmer). Alphalisa is a sandwich assay using biotinylated antibody attached to streptavidin coated donorbeads and antibody conjugated to acceptor beads. In the presence of antigen, the beads come into close proximity. The excitation of the donor beads provokes the release of singlet oxygen molecules that trigger a cascade of energy transfer in the acceptor beads, resulting in light emission. To quantify the amount of Aβ42 in the cell supernatant, monoclonal antibody specific to the C-terminus of Aβ42 (JRF/cAβ42/26) was coupled to the receptor beads and biotinylated antibody specific to the N-terminus of Aβ (JRF/AβN/25) was used to react with the donor beads. To quantify the amount of Aβ total in the cell supernatant, monoclonal antibody specific to the N-terminus of Aβ (JRF/AβN/25) was coupled to the receptor beads and biotinylated antibody specific to the mid region of Aβ (biotinylated 4G8) was used to react with the donor beads.
(§5) To obtain the values reported in Table 3, the data are calculated as percentage of the maximum amount of amyloid Beta 42 measured in the absence of the test compound. The sigmoidal dose response curves were analyzed using nonlinear regression analysis with percentage of the control plotted against the log concentration of the compound. A 4-parameter equation was used to determine the IC50.
On the technique in general: Bead proximity is the source of the signal in Alpha formats.

Test [2] relates to Aβtotal. The test is described as follows: Screening for γ-secretase-modulating activity: Aβtotal in supernatant of SKNBE2 cells carrying hAPP 695 wild type (Alphalisa). The format is cell-based, human. Particulars: overnight incubation, Alphalisa on supernatant. The method, then:
as §1, §2, §3, §4, §5

The mark [3] stands for this setting: SKNBE2 human neuroblastoma cells carrying hAPP 695 wild type.
[4] abbreviates: Homo sapiens, SKNBE2, SKNBE2 human neuroblastoma cells carrying hAPP 695 wild type.

A word on the IC50: it is the concentration at which inhibition is half-maximal. A lower IC50 goes with greater potency in that assay. On to `COc1c(C#N)ccc2[nH]c(-c3nc4n(n3)CCCOC4c3ccc(F)cc3C)cc12` (stereo not shown) [Compound 52, 2-[9-(4-fluoro-2-methylphenyl)-6,7-dihydro-5H,9H-[1,2,4]triazolo[5,1-c][1,4]oxazepin-2-yl]-4-methoxy-1H-indole-5-carbonitrile], for which the half-maximal inhibitory concentration (IC50) in test [1] (setting [3]) was 44 nM; in test [2] (setting [4]), > 10 µM.
For `COc1c(C#N)ccc2[nH]c(-c3nc4n(n3)CCCOC4c3ccc(F)cc3C)cc12` (stereo not shown) [Compound 54, 2-[9-(4-fluoro-2-methylphenyl)-6,7-dihydro-5H,9H-[1,2,4]triazolo[5,1-c][1,4]oxazepin-2-yl]-4-methoxy-1H-indole-5-carbonitrile], the IC50 in test [1] (setting [3]) was 2340 nM; in test [2] (setting [3]), > 10 µM.
`COc1c(C#N)ccc2[nH]c(-c3nc4n(n3)CCN(C)C4c3ccc(F)cc3C)cc12` (stereo not shown) [Compound 58, 2-[8-(4-fluoro-2-methylphenyl)-5,6,7,8-tetrahydro-7-methyl[1,2,4]triazolo[1,5-a]pyrazin-2-yl]-4-methoxy-1H-indole-5-carbonitrile]: the 50% inhibitory concentration (IC50) in test [1] (setting [4]) was 49 nM; in test [2] (setting [4]) it was > 10 µM.
For the compound `Cc1cn(-c2ccc3[nH]c(-c4nc5n(n4)CCCC5c4ccc(F)cc4C)cc3n2)cn1` (stereo not shown) [Compound 66, 8-(4-fluoro-2-methylphenyl)-5,6,7,8-tetrahydro-2-[5-(4-methyl-1H-imidazol-1-yl)-1H-pyrrolo[3,2-b]pyridin-2-yl]-[1,2,4]triazolo[1,5-a]pyridine], the IC50 was 447 nM in test [1] (setting [3]) and > 10 µM in test [2] (setting [3]).
`Cc1cc(F)ccc1C1CCCn2nc(-c3cc4cc(C#N)ncc4[nH]3)nc21` (stereo not shown) [Compound 68, 2-[8-(4-fluoro-2-methylphenyl)-5,6,7,8-tetrahydro[1,2,4]triazolo[1,5-a]pyridin-2-yl]-1H-pyrrolo[2,3-c]pyridine-5-carbonitrile]: the figures for the IC50 in test [1] (setting [4]) and in test [2] (setting [4]) were 316 nM and > 10 µM, respectively.
On to `Cc1cc(F)ccc1C1CCCn2nc(-c3cc4nc(-c5cnn(C)c5)ccc4[nH]3)nc21` (stereo not shown) [Compound 70, 8-(4-fluoro-2-methylphenyl)-5,6,7,8-tetrahydro-2-[5-(1-methyl-1H-pyrazol-4-yl)-1H-pyrrolo[3,2-b]pyridin-2-yl]-[1,2,4]triazolo[1,5-a]pyridine], for which the figures for the IC50 in test [1] (setting [3]) and in test [2] (setting [3]) were 1000 nM and > 10 µM, respectively.
In the case of `Cc1cc(F)ccc1C1CCCn2cc(-c3cc4nc(C#N)ccc4[nH]3)nc21` (stereo not shown) [Compound 75, 2-[8-(4-fluoro-2-methylphenyl)-5,6,7,8-tetrahydroimidazo[1,2-a]pyridin-2-yl]-1H-pyrrolo[3,2-b]pyridine-5-carbonitrile], the IC50 in test [1] (setting [4]) is 174 nM; in test [2] (setting [4]), > 10 µM.
On to `Cc1cc(F)ccc1C1CCCn2cc(-c3cc4nc(-c5cnn(C)c5)ccc4[nH]3)nc21` (stereo not shown) [Compound 85, 2-[8-(4-fluoro-2-methylphenyl)-5,6,7,8-tetrahydroimidazo[1,2-a]pyridin-2-yl]-5-(1-methyl-1H-pyrazol-4-yl)-1H-pyrrolo[3,2-b]pyridine], for which the half-maximal inhibitory concentration (IC50) is 9120 nM in test [1] (setting [3]) and > 10 µM in test [2] (setting [4]).
With `Cc1cc(F)ccc1C1CCCn2cc(-c3cc4nc(-c5cnn(C)c5)ccc4[nH]3)nc21` (stereo not shown) [Compound 86, 2-[8-(4-fluoro-2-methylphenyl)-5,6,7,8-tetrahydroimidazo[1,2-a]pyridin-2-yl]-5-(1-methyl-1H-pyrazol-4-yl)-1H-pyrrolo[3,2-b]pyridine], the figures for the IC50 in test [1] (setting [3]) and in test [2] (setting [3]) were 112 nM and > 10 µM, respectively.
In the case of `COCc1ccccc1C1CCCn2nc(-c3cc4c(OC)c(C#N)ccc4[nH]3)nc21` (stereo not shown) [Compound 89, 4-methoxy-2-[5,6,7,8-tetrahydro-8-[2-(methoxymethyl)phenyl][1,2,4]triazolo[1,5-a]pyridin-2-yl]-1H-indole-5-carbonitrile], the IC50 in test [1] (setting [3]) is 56 nM; in test [2] (setting [4]) it was > 10 µM.
As to `COCc1ccccc1C1CCCn2nc(-c3cc4c(OC)c(C#N)ccc4[nH]3)nc21` (stereo not shown) [Compound 90, 4-methoxy-2-[5,6,7,8-tetrahydro-8-[2-(methoxymethyl)phenyl][1,2,4]triazolo[1,5-a]pyridin-2-yl]-1H-indole-5-carbonitrile], the IC50 in test [1] (setting [3]) was 40 nM; in test [2] (setting [3]), > 10 µM.
On to `COCc1ccccc1C1CCCn2nc(-c3cc4c(OC)c(C#N)ccc4[nH]3)nc21` (stereo not shown) [Compound 91, 4-methoxy-2-[5,6,7,8-tetrahydro-8-[2-(methoxymethyl)phenyl][1,2,4]triazolo[1,5-a]pyridin-2-yl]-1H-indole-5-carbonitrile], for which the values for the IC50 in test [1] (setting [3]) and in test [2] (setting [3]) were 1200 nM and > 10 µM, respectively.
As for `Cc1cn(-c2ccc3cc(-c4nc5n(n4)CCCC5c4ccc(F)cc4C)[nH]c3c2)cn1` (stereo not shown) [Compound 93], the IC50 in test [1] (setting [4]) is 1480 nM; in test [2] (setting [4]), > 10 µM.
Take `Cc1cn(-c2ccc3[nH]c(-c4nc5n(n4)CCOC5c4ccc(F)cc4C)cc3n2)cn1` (stereo not shown) [Compound 94, 8-(4-fluoro-2-methylphenyl)-5,6-dihydro-2-[5-(4-methyl-1H-imidazol-1-yl)-1H-pyrrolo[3,2-b]pyridin-2-yl]-8H-[1,2,4]triazolo[5,1-c][1,4]oxazine]: the IC50 in test [1] (setting [4]) is 170 nM; in test [2] (setting [4]), 1.82 µM.
With `CCc1cc(F)ccc1C1OCCn2nc(-c3cc4cc(C#N)ccc4[nH]3)nc21` (stereo not shown) [Compound 95, 2-[8-(2-ethyl-4-fluorophenyl)-5,6-dihydro-8H-[1,2,4]triazolo[5,1-c][1,4]oxazin-2-yl]-1H-indole-5-carbonitrile], the values for the IC50 in test [1] (setting [4]) and in test [2] (setting [4]) were 355 nM and > 10 µM, respectively.
In the case of `Cc1cn(-c2ccc3[nH]c(-c4nc5n(n4)CCOC5c4ccc(F)c(F)c4C)cc3c2)cn1` (stereo not shown) [Compound 104, 8-(3,4-difluoro-2-methylphenyl)-5,6-dihydro-2-[5-(4-methyl-1H-imidazol-1-yl)-1H-indol-2-yl]-8H-[1,2,4]triazolo[5,1-c][1,4]oxazine], the IC50 in test [1] (setting [4]) is 44 nM; in test [2] (setting [4]), > 10 µM.
For `Cc1cc(F)ccc1C1OCCn2nc(-c3cc4cc(-c5cnn(C)c5)ccc4[nH]3)nc21` (stereo not shown) [Compound 107, 8-(4-fluoro-2-methylphenyl)-5,6-dihydro-2-[5-(1-methyl-1H-pyrazol-4-yl)-1H-indol-2-yl]-8H-[1,2,4]triazolo[5,1-c][1,4]oxazine], the IC50 in test [1] (setting [4]) is 148 nM; in test [2] (setting [4]), > 10 µM.
For the compound `Cc1cc(-c2ccc3[nH]c(-c4nc5n(n4)CCOC5c4ccc(F)cc4C)cc3c2)ccn1` (stereo not shown) [Compound 108, 8-(4-fluoro-2-methylphenyl)-5,6-dihydro-2-[5-(2-methyl-4-pyridinyl)-1H-indol-2-yl]-8H-[1,2,4]triazolo[5,1-c][1,4]oxazine], the IC50 in test [1] (setting [4]) is 40 nM; in test [2] (setting [4]), > 10 µM.
Regarding `COc1c(C#N)ccc2[nH]c(-c3cn4c(n3)C(c3c(F)cccc3Cl)OCC4)cc12` (stereo not shown) [Compound 119, 2-[8-(2-chloro-6-fluorophenyl)-5,6-dihydro-8H-imidazo[2,1-c][1,4]oxazin-2-yl]-4-methoxy-1H-indole-5-carbonitrile], the values for the IC50 in test [1] (setting [4]) and in test [2] (setting [4]) were 55 nM and > 10 µM, respectively.
With `COCc1ccccc1C1OCCn2cc(-c3cc4c(OC)c(C#N)ccc4[nH]3)nc21` (stereo not shown) [Compound 120, 2-[5,6-dihydro-8-[2-(methoxymethyl)phenyl]-8H-imidazo[2,1-c][1,4]oxazin-2-yl]-4-methoxy-1H-indole-5-carbonitrile], the results for the IC50 in test [1] (setting [3]) and in test [2] (setting [4]) were 123 nM and > 10 µM, respectively.
